Bridge positions count the residues as written; N and C are the ends. Peptide text beside a SMILES is read from it.
test system: Escherichia coli W3110; format: cell-based; settings: W3110

| Molecule | MIC [µg/mL] | W3110 MIC MH [µg/mL] | W3110 MIC RPMI [µg/mL] |
| --- | --- | --- | --- |
| Protegrin-1 [reference compound] | 0.5 to 4 | 0.5 | 0.5 |

test system: Acinetobacter baumannii AB5075; settings: 100% fetal bovine serum; median of triplicate
Experimental: MICs were performed by a modifiedClinical and Laboratory Standards Institute) procedure. […] Separately, E. coli W3110 or A. baumannii AB5075 was grown overnight in 5 ml of standard MH at 37°C. Cells from these cultures were diluted to a concentration of 5 × 10^5 to 6 × 10^5 cells/ml in either standard MH, MHII, RPMI, or fetal bovine serum, and 90 μl was added to each well of the 96-well plate containing diluted peptide. Plates were wrapped twice in parafilm and incubated at 37°C for 18 to 24 hours. Wells were examined by eye against wells with no bacteria for signs of growth. MICs were reported as the minimum concentration with no observable growth. In cases where triplicate samples differed, the concentration supported by the median of the three replicates was reported. […]
For consistency, all SynCH peptides were resuspended at 10 mg/ml in water. Peptides were then visually inspected for any lack of solubility (Data File S1). […]
We had this library commercially synthesized and tested its ability to inhibit the growth of Acinetobacter baumannii AB5075, a clinically isolated Carbapenem Resistant Acinetobacter (CRA) pathogen. MICs were performed in MH as well as 100% FBS, which is likely more representative of the in vivo environment. […]

| Molecule | AB5075 MIC FBS [µg/mL] |
| --- | --- |
| Protegrin-1 [reference compound] | 32 |

same assay, conditions: AB5075

| Molecule | AB5075 MIC FBS [µg/mL] | AB5075 MIC MH [µg/mL] |
| --- | --- | --- |
| CC(C)C[C@@H]1NC(=O)[C@H](CCCNC(=N)N)NC(=O)[C@H](C(C)C)NC(=O)[C@H](CCCCN)NC(=O)[C@H](C(C)C)NC(=O)[C@H](CCCNC(=N)N)NC(=O)[C@H](CCCNC(=N)N)NC(=O)[C@H](CCCNC(=N)N)NC(=O)[C@H](CCCNC(=N)N)NC(=O)[C@H](CC(N)=O)NC(=O)[C@H](CCCNC(=N)N)NC(=O)[C@H](CC(C)C)NC(=O)[C@H](CCCNC(=N)N)NC(=O)[C@H](C(C)C)NC(=O)[C@H](CCCNC(=N)N)NC(=O)[C@@H](N)CSSC[C@@H](C(=O)O)NC(=O)[C@H](CCCNC(=N)N)NC1=O [SySA-5.7] (H-CRVRLRNRRRRVKVRLRC-OH; disulfide 1-18) | > 128 | 8 |
| CC(C)C[C@@H]1NC(=O)[C@H](CO)NC(=O)[C@H](C(C)C)NC(=O)[C@H](CCCCN)NC(=O)[C@H](CCCNC(=N)N)NC(=O)[C@H](CCCNC(=N)N)NC(=O)[C@H](CCCNC(=N)N)NC(=O)[C@H](CC(N)=O)NC(=O)[C@H](CC(C)C)NC(=O)[C@H](CCCNC(=N)N)NC(=O)[C@H](C(C)C)NC(=O)[C@H](CCCNC(=N)N)NC(=O)[C@H](CC(C)C)NC(=O)[C@@H](N)CSSC[C@@H](C(=O)O)NC(=O)[C@H](C(C)C)NC(=O)[C@H](CCC(N)=O)NC1=O [SySA-5.18] (H-CLRVRLNRRRKVSLQVC-OH; disulfide 1-17) | 128 | 8 |
| CC(C)C[C@@H]1NC(=O)[C@H](CCCNC(=N)N)NC(=O)[C@H](C(C)C)NC(=O)[C@H](CCCCN)NC(=O)[C@H](CCCNC(=N)N)NC(=O)[C@H](CCCNC(=N)N)NC(=O)[C@H](CCCNC(=N)N)NC(=O)[C@H](CCCNC(=N)N)NC(=O)[C@H](CC(C)C)NC(=O)[C@H](CCCNC(=N)N)NC(=O)[C@H](C(C)C)NC(=O)[C@H](CCCNC(=N)N)NC(=O)[C@H](CC(C)C)NC(=O)[C@@H](N)CSSC[C@@H](C(=O)O)NC(=O)[C@H](C(C)C)NC(=O)[C@H](CCCNC(=N)N)NC1=O [SySA-5.20] (H-CLRVRLRRRRKVRLRVC-OH; disulfide 1-17) | 128 | 4 |
| CC(C)C[C@@H]1NC(=O)[C@H](CO)NC(=O)[C@H](C(C)C)NC(=O)[C@H](CCCCN)NC(=O)[C@H](C(C)C)NC(=O)[C@H](CCCNC(=N)N)NC(=O)CNC(=O)[C@H](CCCNC(=N)N)NC(=O)[C@H](CCCNC(=N)N)NC(=O)[C@H](CC(N)=O)NC(=O)[C@H](CC(N)=O)NC(=O)[C@H](CC(C)C)NC(=O)[C@H](CCCNC(=N)N)NC(=O)[C@H](C(C)C)NC(=O)[C@H](CCCNC(=N)N)NC(=O)[C@@H](N)CSSC[C@@H](C(=O)O)NC(=O)[C@H](CCC(N)=O)NC1=O [SySA-5.5] (H-CRVRLNNRRGRVKVSLQC-OH; disulfide 1-18) | > 128 | 8 |
| CC(C)C[C@@H]1NC(=O)[C@H](CO)NC(=O)[C@H](C(C)C)NC(=O)[C@H](CCCCN)NC(=O)[C@H](CCCNC(=N)N)NC(=O)CNC(=O)[C@H](CCCNC(=N)N)NC(=O)[C@H](CCCNC(=N)N)NC(=O)[C@H](CCCNC(=N)N)NC(=O)[C@H](CC(C)C)NC(=O)[C@H](CCCNC(=N)N)NC(=O)[C@H](C(C)C)NC(=O)[C@H](CCCNC(=N)N)NC(=O)[C@@H](N)CSSC[C@@H](C(=O)O)NC(=O)[C@H](CCCNC(=N)N)NC1=O [SySA-5.24] (H-CRVRLRRRGRKVSLRC-OH; disulfide 1-16) | > 128 | 16 |
| CC(C)C[C@@H]1NC(=O)[C@H](CCCNC(=N)N)NC(=O)[C@H](C(C)C)NC(=O)[C@H](CCCNC(=N)N)NC(=O)[C@H](CC(C)C)NC(=O)[C@@H](N)CSSC[C@@H](C(=O)O)NC(=O)[C@H](C(C)C)NC(=O)[C@H](CCCNC(=N)N)NC(=O)[C@H](CC(C)C)NC(=O)[C@H](CO)NC(=O)[C@H](C(C)C)NC(=O)[C@H](CCCCN)NC(=O)[C@H](C(C)C)NC(=O)[C@H](CCCNC(=N)N)NC(=O)CNC(=O)[C@H](CCCNC(=N)N)NC(=O)[C@H](CCCNC(=N)N)NC(=O)[C@H](CC(N)=O)NC(=O)[C@H](CCCNC(=N)N)NC1=O [SySA-5.1] (H-CLRVRLRNRRGRVKVSLRVC-OH; disulfide 1-20) | 128 | 8 |
| CC(C)C[C@@H]1NC(=O)[C@H](CO)NC(=O)[C@H](C(C)C)NC(=O)[C@H](CCCCN)NC(=O)[C@H](CCCNC(=N)N)NC(=O)CNC(=O)[C@H](CCCNC(=N)N)NC(=O)[C@H](CCCNC(=N)N)NC(=O)[C@H](CC(N)=O)NC(=O)[C@H](CC(C)C)NC(=O)[C@H](CCCNC(=N)N)NC(=O)[C@H](C(C)C)NC(=O)[C@H](CCCNC(=N)N)NC(=O)[C@@H](N)CSSC[C@@H](C(=O)O)NC(=O)[C@H](CCC(N)=O)NC1=O [SySA-5.23] (H-CRVRLNRRGRKVSLQC-OH; disulfide 1-16) | > 128 | 8 |
| CC(C)C[C@@H]1NC(=O)[C@H](CO)NC(=O)[C@H](C(C)C)NC(=O)[C@H](CCCCN)NC(=O)[C@H](CCCNC(=N)N)NC(=O)CNC(=O)[C@H](CCCNC(=N)N)NC(=O)[C@H](CCCNC(=N)N)NC(=O)[C@H](CC(N)=O)NC(=O)[C@H](CC(C)C)NC(=O)[C@H](CCCNC(=N)N)NC(=O)[C@H](C(C)C)NC(=O)[C@H](CCCNC(=N)N)NC(=O)[C@H](CC(C)C)NC(=O)[C@@H](N)CSSC[C@@H](C(=O)O)NC(=O)[C@H](C(C)C)NC(=O)[C@H](CCC(N)=O)NC1=O [SySA-5.10] (H-CLRVRLNRRGRKVSLQVC-OH; disulfide 1-18) | 128 | 4 |
| CC(C)C[C@@H]1NC(=O)[C@H](CCCNC(=N)N)NC(=O)[C@H](C(C)C)NC(=O)[C@H](CCCCN)NC(=O)[C@H](CCCNC(=N)N)NC(=O)CNC(=O)[C@H](CCCNC(=N)N)NC(=O)[C@H](CCCNC(=N)N)NC(=O)[C@H](CCCNC(=N)N)NC(=O)[C@H](CC(C)C)NC(=O)[C@H](CCCNC(=N)N)NC(=O)[C@H](C(C)C)NC(=O)[C@H](CCCNC(=N)N)NC(=O)[C@H](CC(C)C)NC(=O)[C@@H](N)CSSC[C@@H](C(=O)O)NC(=O)[C@H](C(C)C)NC(=O)[C@H](CCC(N)=O)NC1=O [SySA-5.11] (H-CLRVRLRRRGRKVRLQVC-OH; disulfide 1-18) | 64 | 4 |
| CC(C)C[C@@H]1NC(=O)[C@H](CCCNC(=N)N)NC(=O)[C@H](C(C)C)NC(=O)[C@H](CCCNC(=N)N)NC(=O)[C@H](CC(C)C)NC(=O)[C@@H](N)CSSC[C@@H](C(=O)O)NC(=O)[C@H](C(C)C)NC(=O)[C@H](CCCNC(=N)N)NC(=O)[C@H](CC(C)C)NC(=O)[C@H](CCCNC(=N)N)NC(=O)[C@H](C(C)C)NC(=O)[C@H](CCCCN)NC(=O)[C@H](C(C)C)NC(=O)[C@H](CCCNC(=N)N)NC(=O)[C@H](CCCNC(=N)N)NC(=O)[C@H](CCCNC(=N)N)NC(=O)[C@H](CCCNC(=N)N)NC(=O)[C@H](CC(N)=O)NC(=O)[C@H](CCCNC(=N)N)NC1=O [SySA-5.2] (H-CLRVRLRNRRRRVKVRLRVC-OH; disulfide 1-20) | > 128 | 4 |
| CC(C)C[C@@H]1NC(=O)[C@H](CCCNC(=N)N)NC(=O)[C@H](C(C)C)NC(=O)[C@H](CCCCN)NC(=O)[C@H](CCCNC(=N)N)NC(=O)[C@H](CCCNC(=N)N)NC(=O)[C@H](CCCNC(=N)N)NC(=O)[C@H](CCCNC(=N)N)NC(=O)[C@H](CC(C)C)NC(=O)[C@H](CCCNC(=N)N)NC(=O)[C@H](C(C)C)NC(=O)[C@H](CCCNC(=N)N)NC(=O)[C@H](CC(C)C)NC(=O)[C@@H](N)CSSC[C@@H](C(=O)O)NC(=O)[C@H](C(C)C)NC(=O)[C@H](CCC(N)=O)NC1=O [SySA-5.19] (H-CLRVRLRRRRKVRLQVC-OH; disulfide 1-17) | > 128 | 4 |
| CC(C)C[C@@H]1NC(=O)[C@H](CO)NC(=O)[C@H](C(C)C)NC(=O)[C@H](CCCCN)NC(=O)[C@H](C(C)C)NC(=O)[C@H](CCCNC(=N)N)NC(=O)CNC(=O)[C@H](CCCNC(=N)N)NC(=O)[C@H](CCCNC(=N)N)NC(=O)[C@H](CC(N)=O)NC(=O)[C@H](CCCNC(=N)N)NC(=O)[C@H](CC(C)C)NC(=O)[C@H](CCCNC(=N)N)NC(=O)[C@H](C(C)C)NC(=O)[C@H](CCCNC(=N)N)NC(=O)[C@@H](N)CSSC[C@@H](C(=O)O)NC(=O)[C@H](CCCNC(=N)N)NC1=O [SySA-5.6] (H-CRVRLRNRRGRVKVSLRC-OH; disulfide 1-18) | 128 | 4 |

same assay, conditions: Mueller-Hinton; median of triplicate

| Molecule | AB5075 MIC MH [µg/mL] |
| --- | --- |
| Protegrin-1 [reference compound] | 1 |

Reference: PMC9833666, “Designing and identifying β-hairpin peptide macrocycles with antibiotic potential” (Science Advances, 2023)
